These results are taken from paper PMC7874386, “Protein-observed 19F NMR of LecA from Pseudomonas aeruginosa” (Glycobiology, 2020).

Broadly, the IC50 is the midpoint of a concentration-inhibition curve. The low end stands for greater potency, the high end for weaker potency.

Experiment [1] concerns the target T1, LecA (Pseudomonas aeruginosa, UniProt Q05097).
T1 construct: made in house; host or cells: Escherichia coli BL21 (DE3) (inferred from the yield comparison; no protocol of its own is printed for the unlabelled protein)
To be noted: cited from earlier work; for affinity improvement compared to galactose: reported Kd values, ref Kadam, et al. 2011, Rodrigue, et al. 2013.

Experiment [2] concerns the target T2, 5FW LecA (Pseudomonas aeruginosa, UniProt Q05097).
T2 construct: made in house; host or cells: Escherichia coli BL21 (DE3), plasmid pET25pa1l, grown with 5-fluoroindole
The experiment in a line: PrOF NMR titration of ligands to 5FW LecA (W42 peak intensity). In kind it is binding. The method, then: All experiments were conducted on Bruker Ascend™700 (AvanceIII HD) spectrometer equipped with a 5 mm TCI700 CryoProbe™ in 3 mm tubes (Norell S-3-800-7) with following parameters: time domain of 1972, relaxation delay 1 s, acquisition time of 0.15 s, spectral width of 10 p.p.m. and 1024 scans resulting in measurement time of 20 minutes.
The decreasing intensity of the unbound W42 in 5FW LecA was followed to determine Kd values of ligands. Here, we used these values to normalize the changes in W42 peak intensities (Inormalized) following the equation (1) resulting in values plotted on Y-axis.(1) where I0 was unbound W42 in the reference spectrum of protein only, Imeasured was unbound W42 peak of protein with a ligand. The Kd values were calculated according to the one-site-binding model in GraphPad Prism 8 (GraphPad Software Inc., San Diego, CA) from three independent titrations.

Experiment [3] addresses T1, LecA. The experiment in a line: Competitive binding fluorescence polarization assay with LecA. The method, then:
(§1) The competitive binding assay was performed as reported previously ([Joachim et al. 2016]). In total, 10 μL of LecA (40 μM) and meta-linked fluorescein-conjugate of phenyl-galactopyranoside (20 nM) in TBS pH 7.4 supplemented with 1 mM CaCl2 (TBS/Ca^2+) and 10 μL of compound-dilution series (8 mM to 62 μM, 8% DMSO) in TBS/Ca^2+ buffer were mixed in a 384-well plate (Greiner Bio-One, Germany) in three technical replicates. The sealed plate was centrifuged at 300 g for 1 min and incubated at room temperature with shaking. […] Polarization was calculated and the data were analyzed according to the four-parameter variable slope model (MARS Data Analysis Software, BMG Labtech GmbH, Germany), the top and bottom plateaus were determined from the control Me-α-D-Gal and data were reanalyzed with these values fixed.
For orientation: Fluorescence polarisation rises when a labelled molecule tumbles more slowly, as on binding a larger partner.

For experiment [4], the target named is T2, 5FW LecA. The experiment in a line: Competitive binding fluorescence polarization assay with 5FW LecA. Here is the method: as §1
Experiment [5] concerns the target T1, LecA. To be noted: ref Cioci et al. 2003; cited from earlier work.
For experiment [6], the target named is T1, LecA. The experiment in a line: Isothermal titration calorimetry of Ca2+ to apo LecA. The note with it: unlabeled apo LecA, TBS pH 7.4, 25°C; read-out: Kd (ITC). In kind it is binding. Here is the method: ITC was performed on a Microcal ITC200 (General Electric) at 25°C. Calcium ions were removed by extensive dialysis against 1 mM EDTA pH 7.4 (×4) followed by 150 mM NaCl (×4) and distilled water. The protein solution was lyophilized and the solid protein stored at −20°C. A solution of calcium chloride in TBS (20 mM Tris, 137 mM NaCl, 2.6 mM KCl at pH 7.4) was titrated into a calcium-free LecA solution in the same buffer. The data were analyzed according to the one-site-binding model using Microcal Origin software. Four independent titrations were performed using CaCl2 and LecA between 2 and 3 mM and 170 and 200 μM, respectively.
Background: Isothermal titration calorimetry measures the heat released or taken up as one component is titrated into another.

Molecules are shown by their SMILES. Like-named read-outs stand apart in the source and are kept apart here.

T2 sequence (Q05097 2-122): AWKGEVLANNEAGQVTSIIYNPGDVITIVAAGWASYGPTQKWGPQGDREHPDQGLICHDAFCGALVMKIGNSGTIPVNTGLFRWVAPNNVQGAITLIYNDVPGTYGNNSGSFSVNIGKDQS
T1 sequence (Q05097 whole entry): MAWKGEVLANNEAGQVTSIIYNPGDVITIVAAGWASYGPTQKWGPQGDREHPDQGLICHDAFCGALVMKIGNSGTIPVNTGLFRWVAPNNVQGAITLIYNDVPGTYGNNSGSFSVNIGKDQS

`CC(C)C[C@H](NC(=O)[C@@H]1CCCN1C(=O)[C@H](CCCCN)NC(=O)c1ccc(O[C@@H]2O[C@H](CO)[C@H](O)[C@H](O)[C@H]2O)cc1)C(N)=O` [GalAG0]: the Kd on LecA [1] (ref Kadam et al. 2011, Kadam et al. 2013, Rodrigue et al. 2013) was 4.2 µM.
Turning to `CC(=O)N[C@H]1C(O)O[C@H](CO)[C@H](O)[C@@H]1O` (stereo partly drawn) [D-GalNAc, N-acetyl D-galactosamine], at 5FW LecA [2], the Kd amounted to 780 ± 97 µM. The figures for the concentration for half-maximal inhibition (IC50) on LecA [3] and at 5FW LecA [4] were 1230 ± 200 µM and 1990 µM, respectively. Further, the “IC50 (FP-based assay) higher compared with Kd from PrOF NMR” value on 5FW LecA [4] (5FW LecA) was determined as 3 fold.
As for `OC[C@H]1O[C@@H](Sc2ccc3ccccc3c2)[C@H](O)[C@@H](O)[C@H]1O` [naphthyl β-thio-D-galactoside], the Kd on LecA [1] (ref Rodrigue et al. 2013) is 6.3 µM. Moreover, the “affinity improvement compared to galactose” value on LecA [1] is on record as 6 to 7 fold.
In the case of `OC[C@H]1O[C@@H](Oc2ccccc2)[C@H](O)[C@@H](O)[C@H]1O` [Ph-β-D-Gal, phenyl-β-D-galactopyranoside], the Kd at 5FW LecA [2] (100 μM holo 5FW LecA, TBS pH 7.8, 310 K, one-site-binding model, three independent titrations, read-out: Kd (PrOF NMR)) was 166 ± 42 µM.
Take `O=C[C@H](O)[C@@H](O)[C@@H](O)[C@H](O)CO` [D-Gal, D-galactose]: the results for the Kd at 5FW LecA [2] and at LecA [5] were 360 µM and 29 µM, respectively. The 50% inhibitory concentration (IC50) came out at 330 ± 40 µM on LecA [3] and 317 µM on 5FW LecA [4].
Turning to `O=[N+]([O-])c1ccc(O[C@@H]2O[C@H](CO)[C@H](O)[C@H](O)[C@H]2O)cc1` [pNPGal, p-nitrophenyl β-D-galactoside], the Kd on 5FW LecA [2] worked out at 54 ± 6 µM. Besides, the “improved binding affinity compared to D-Gal” value on 5FW LecA [2] (Kd in PrOF NMR, pNPGal vs D-Gal) amounted to 6 fold. Further, the “affinity improvement compared to galactose” value on LecA [1] is 6 to 7 fold.
Turning to `[Ca+2]` [Ca^2+, calcium (II) ion], the Kd on 5FW LecA [2] (100 μM apo 5FW LecA, MES pH 6, 310 K, one-site-binding model, three independent titrations, listed as Ca2+, read-out: Kd (PrOF NMR, Ca2+ titration)) was found to be 47 ± 8 µM; at 5FW LecA [2] (100 μM apo 5FW LecA, MES pH 6, 310 K, one-site-binding model, three independent titrations, read-out: Kd (PrOF NMR, Ca2+ titration)) it was 478 µM; at LecA [6], 60 ± 20 µM.
